Assay results reported in ChEMBL document CHEMBL4364273, “Discovery of SHR1653, a Highly Potent and Selective OTR Antagonist with Improved Blood-Brain Barrier Penetration” (ACS Med Chem Lett, 2019).

What was measured:
[1] = target: T1, Oxytocin receptor (Homo sapiens, UniProt P30559); experiment: Antagonist activity at human OTR expressed in HEK293 cells assessed as decrease in calcium flux measured after 10 mins in […] by Fluo-4 dye based microplate reader based assay; format: functional, cell-based
T1 sequence (P30559 whole entry): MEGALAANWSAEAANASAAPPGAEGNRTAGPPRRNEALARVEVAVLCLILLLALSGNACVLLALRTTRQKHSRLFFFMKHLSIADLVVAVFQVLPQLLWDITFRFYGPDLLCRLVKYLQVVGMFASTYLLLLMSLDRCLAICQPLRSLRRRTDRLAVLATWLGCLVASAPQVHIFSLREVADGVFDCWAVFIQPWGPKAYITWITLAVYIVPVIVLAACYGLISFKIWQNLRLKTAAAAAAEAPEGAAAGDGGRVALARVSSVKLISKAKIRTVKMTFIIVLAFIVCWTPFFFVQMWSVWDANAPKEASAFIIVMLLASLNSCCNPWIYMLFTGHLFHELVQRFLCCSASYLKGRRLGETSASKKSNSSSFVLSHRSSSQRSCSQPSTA

[2] = Hepatic clearance in human liver microsomes by LC-MS/MS analysis; format: ADME, Microsome
[3] = Hepatic clearance in dog liver microsomes by LC-MS/MS analysis; format: ADME, Canis lupus familiaris, Microsome
[4] = Hepatic clearance in rat liver microsomes by LC-MS/MS analysis; format: ADME, Microsome
[5] = Acute toxicity in rat; settings: in vivo
[6] = target: T2, Cytochrome P450 3A4 (Homo sapiens, UniProt P08684); experiment: Inhibition of human recombinant CYP3A4 using midazolam as substrate; format: ADME
[7] = target: T2, Cytochrome P450 3A4; experiment: Inhibition of human recombinant CYP3A4 using testosterone as substrate; format: ADME
[8] = Lipophilicity, log D of compound at pH 7.4; format: physicochemical; settings: buffer
[9] = Unbound fraction in Sprague-Dawley rat brain by LC-MS/MS analysis; format: ADME, tissue-based
[10] = Plasma concentration in Sprague-Dawley rat by LC-MS/MS analysis; format: ADME, cell-free
[11] = Drug concentration in Sprague-Dawley rat brain by LC-MS/MS analysis; format: ADME, tissue-based; settings: in vivo
[12] = Tmax in nude mouse at 4 mg/kg, po measured for 24 hrs by LC-MS/MS analysis; format: ADME, organism-based; settings: in vivo
[13] = Tmax in Beagle dog at 20 mg/kg, po measured for 24 hrs by LC-MS/MS analysis; format: ADME, organism-based, Canis lupus familiaris; settings: in vivo
[14] = Cmax in Sprague-Dawley rat at 150 mg/kg, po measured for 24 hrs by LC-MS/MS analysis; format: ADME, organism-based; set-up: dose 150 mg/kg, route oral; settings: in vivo
[15] = Cmax in Beagle dog at 20 mg/kg, po measured for 24 hrs by LC-MS/MS analysis; format: ADME, organism-based, Canis lupus familiaris; set-up: dose 20 mg/kg, route oral; settings: in vivo
[16] = AUC (0 to 24 hrs) in Beagle dog at 20 mg/kg, po by LC-MS/MS analysis; format: ADME, organism-based, Canis lupus familiaris; set-up: time < 24 hr, dose 20 mg/kg, route oral; settings: in vivo
[17] = Half-life in Sprague-Dawley rat at 150 mg/kg, po measured for 24 hrs by LC-MS/MS analysis; format: ADME, organism-based; settings: in vivo
[18] = system: Rattus norvegicus; experiment: Anti-premature ejaculation activity in anesthetized oxytocin-induced uterine contraction Sprague-Dawley rat model assessed as decrease in intraluminal uterine pressure administered orally for 20 mins and 1 hr later treated with oxytocin and measured for 15 to 30 mins relative to control; format: functional
[19] = Clearance in Beagle dog at 1 mg/kg, iv measured for 24 hrs by LC-MS/MS analysis; format: ADME, organism-based, Canis lupus familiaris; settings: in vivo
[20] = species: Homo sapiens; experiment: Selectivity ratio of IC50 for human vasopressin V2 receptor expressed in HEK293 cells to IC50 for human OTR expressed in HEK293 cells; format: cell-based
[21] = AUC (0 to 24 hrs) in anesthetized oxytocin-induced uterine contraction Sprague-Dawley rat model at 30 mg/kg, po; format: ADME, organism-based; set-up: dose 30 mg/kg, time < 24 hr, route oral; settings: in vivo

T2 sequence (P08684 whole entry): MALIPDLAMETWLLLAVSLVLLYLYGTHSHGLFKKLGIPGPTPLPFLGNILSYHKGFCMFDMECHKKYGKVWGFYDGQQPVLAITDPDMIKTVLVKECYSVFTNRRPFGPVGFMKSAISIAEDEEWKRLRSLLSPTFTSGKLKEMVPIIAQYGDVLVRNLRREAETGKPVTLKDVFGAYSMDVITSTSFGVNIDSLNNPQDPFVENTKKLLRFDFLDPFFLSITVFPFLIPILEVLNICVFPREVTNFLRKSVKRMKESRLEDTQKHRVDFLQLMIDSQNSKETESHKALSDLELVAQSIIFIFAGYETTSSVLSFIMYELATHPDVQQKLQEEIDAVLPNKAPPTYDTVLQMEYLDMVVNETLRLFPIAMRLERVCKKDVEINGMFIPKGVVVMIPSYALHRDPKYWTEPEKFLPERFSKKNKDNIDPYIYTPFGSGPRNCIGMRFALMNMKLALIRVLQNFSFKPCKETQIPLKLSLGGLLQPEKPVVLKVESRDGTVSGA

COCc1nnc(N2C[C@@H]3C[C@]3(c3ccc(F)cc3Cl)C2)n1-c1ccc(OC)nc1
IC50 [1]: 0.015 µM
CLhep predicted [2]: 14.8 mL/min/kg
CLhep predicted [3]: 20.3 mL/min/kg
CLhep predicted [4]: 54.9 mL/min/kg
MTD [5]: > 900 mg/kg
NOAEL [5]: 300 mg/kg
IC50 [6]: > 30 µM
IC50 [7]: 20 µM
logD [8]: 2.86
fraction unbound [9]: 0.0166
Cp [10]: 1379 ng/mL
Ct [11]: 229 ng/g
Tmax [12]: 30 min
Tmax [13]: 52.8 min
Cmax [14]: 14000 ng/mL
Cmax [15]: 13500 ng/mL
AUC(0-t) at 24 h [16]: 58700 ng·h/mL
half-life [17]: 194 min
ED [18]: 30 mg/kg
inhibition [18]: Dose-dependent effect
clearance [19]: 7.2 mL/min/kg
Ratio IC50 [20]: 2170
AUC(0-t) at 24 h [21]: 28300 ng·h/mL
